{
  "source": "patent US12661308B2",
  "about": "“Antimicrobial AZO compounds and uses thereof” (The Regents Of The University Of Colorado, A Body Corporate, priority 2019, dated 2026)",
  "key": {"S. mutans biofilm": {"system": "S. mutans biofilm", "test": "S. mutans biofilm growth on coated pit and fissure dental sealants", "type": "cell-based, Streptococcus mutans", "settings": "coating on pit and fissure sealants", "from_the_text": "In some implementations, the azobenzene polymers can be used as an antimicrobial coating on pit and fissure dental sealants. […] Azobenzene coatings can be incorporated into pit and fissure sealants as an anti-bacterial coating to prevent tooth decay."}, "E. coli biofilm": {"system": "E. coli biofilm", "test": "Biofilm growth study, E. coli", "type": "cell-based, Escherichia coli", "settings": "50 mg/mL coated substrate, 24 h time-period", "description": "E. coli biofilms were grown from a 20 h BHI inoculated with an E. coli colony. The liquid culture was diluted 10^3 to a stock solution in BHI, then diluted 1:10 in BHI media in a 96-well plate. The plate was incubated in the dark at 37° C. for 24 h.\n(§1) Following biofilm growth in the 96-well plate, the substrates were aseptically removed from the 96-well plate and placed in a vial containing 5 mL of 1× PBS solution. The vials were sonicated in a water bath for 10 min at 45° C., and the wells that previously contained the substrates were briefly sonicated using a probe sonicator (3 W RMS output) for 10 s per well. 200 μL aliquots of the sonicated PBS solution were placed in a 96-well plate and diluted 1:10 in each subsequent row. 20 μL aliquots of the sonicated media wells were placed in a 96-well plate containing 180 μL of PBS solution and diluted 1:10 in each subsequent row. Each column was then plated at a volume of 10 μL on a BHI agar plate in triplicate. The plates were then incubated at 37° C. and 5% CO2 for 48 h. The CFUs on each plate were counted in order to quantify the amount of biofilm remaining on the surface of the substrate and the bacteria remaining in the media after the removal of the substrate using the following equations: […]"}, "[1]": {"system": "L929 mouse epithelial cells", "test": "Cytotoxicity study, MTT (Example 4)", "type": "cell-based", "settings": "50 mg/mL coated substrates", "description": "Cytotoxicity studies were performed as described previously. Riss et al., Cell Viability Assays, (Promega). Briefly, L929 mouse epithelial cells were suspended in cell culture media (DMEM, 10% FBS, 1% penicillin streptomycin) to a final concentration of 1.06×10^5 cells/mL. 1 mL of the suspension was added to each well in a 24-well plate containing the substrates and allowed to grow to confluence. Cell growth was monitored via a phase contrast inverted microscope (Leica, WLD MPS32, Germany). Once confluent, the media was aspirated off, and 500 μL of a 1 mg/mL solution of MTT reagent in DMEM media was added to each well. The plate was incubated for 4 h, and 500 μL of 20% SDS in 50% DMF was added to each well containing the MTT reagent. The plate was incubated for an additional 24 h, then removed and analyzed by an absorbance reading at λ=570 nm (FIG. 10)."}, "[2]": {"system": "S. mutans (ATCC 25175) biofilm", "test": "S. mutans biofilm growth study by CFU count on coated and bulk substrates (Example 4)", "type": "cell-based, Streptococcus mutans", "description": "Coating formulations of OH-AAZO were prepared in THF, all others were prepared in DMF. The THF volume was kept constant (1 mL) and the mass of OH-AAZO monomer was varied to attain the desired concentration. In addition to the OH-AAZO monomer, the coating also consisted of AIBN (2 wt. % relative to the mass of the monomer), and Rhodamine B (0.2 wt. % relative to the mass of the monomer).\nOnce cured, the MMA:TEGDMA:PMMA base polymers were placed into a mount on a square glass microscope slide. 3 μL of the coating formulation was added via pipette to one side of the substrate and spin coated (1000 rpm for 1 min, 6000 rpm for 3 min), then the process was repeated on the other side. Once both sides were coated, they were placed in an oven for 3 h at 100° C., then under vacuum for an additional 0.5 h.\nBulk OH-AAZO formulations were prepared using the acrylic base polymer method with the addition of the appropriate weight percentage of OH-AAZO (relative to the total mass of the formulation) and AIBN (rather than camphorquinone/amine, 2 wt. %). The components were stirred at room temperature until completely dissolved. The formulations were pipetted into the rubber spacer and cured for 1 h at 100° C. Conversion rates were observed via FT-IR.\nFollowing curing, residual monomer was aqueously extracted by autoclaving (20 psi, 128° C.) for 1 h in MilliQ water (approx. 5 mL water per substrate). The MilliQ water was replaced with fresh water (approx. 5 mL water per substrate) and placed in an 80° C. oven for 2 h. The substrates were blotted dry and analyzed via UV-Vis spectroscopy to confirm the relative amount of the coating (FIG. 9). All coated and bulk substrates were autoclaved prior to their use with both mammalian and bacterial cells.\nS. mutans biofilms were grown from a 24 h BHI liquid culture inoculated with an isolated S. mutans colony. The liquid culture was diluted 1:50 in BHI media containing 1 wt. % sucrose in each well in a 96-well plate containing a substrate of interest. The plate was incubated in the dark at 37° C. and 5% CO2 for the necessary amount of time (t=24 h, 48 h, 72 h, depending on the experiment).\nas §1"}, "S. mutans": {"system": "S. mutans", "test": "Detachment study of S. mutans from OH-AAZO coated substrate with and without light (Example 2)", "type": "cell-based, Streptococcus mutans", "settings": "50 mg/mL coating", "description": "In this Example, detachment of S. mutans from a polymeric substrate coated with a 50 mg/mL OH-AAZO solution was evaluated. Four conditions were evaluated. The first is where the polymeric substrate is coated with OH-AAZO and exposed to light to produce a photofluidization effect due to the rapid trans cis isomerization (Azo, light or AL). The second is where the polymeric substrate is coated with OH-AAZO and not exposed to light (Azo, no light or ANL). The third is where the polymeric substrate is not coated with OH-AAZO and is exposed to light (no Azo, light or NAL). The fourth is where the polymeric substrate is not coated with OH-AAZO and is not exposed to light (no Azo, no light or NANL)."}},
  "note": "Entries after “also recorded” stand apart in the source; their conditions may differ.",
  "data": [
    {"smiles": "C=CC(=O)Oc1ccccc1/N=N/c1ccccc1O", "note": "[OH-AAZO, phenolic acrylated azobenzene]", "values": [
      {"measurement": "S. mutans biofilm growth", "setting": "S. mutans biofilm", "result": "absent"},
      {"measurement": "antibacterial effect on E. coli biofilm (CFUs)", "setting": "E. coli biofilm", "result": "no discernable antibacterial effect or reduction in CFUs"},
      {"measurement": "cytocompatibility", "setting": "[1]", "result": "cytocompatible"},
      {"measurement": "CFUs of S. mutans biofilm on substrate", "setting": "[2]; 5 mg/mL coating solution, 24 h", "result": "approximately 1.0×10^8 CFUs"},
      {"measurement": "difference in CFUs between coated and uncoated substrates", "setting": "[2]; 5 mg/mL coating solution, 24 h", "result": "no significant difference"},
      {"measurement": "reduction in CFUs of S. mutans biofilm relative to the uncoated control", "setting": "[2]; 25 mg/mL coating solution, 24 h", "result": 4, "unit": "log"},
      {"measurement": "sterility of the substrate (sonication CFU)", "setting": "[2]; 50 mg/mL coated substrates, over 72 h", "result": "maintained sterility"},
      {"measurement": "bacterial growth in the media surrounding the substrate", "setting": "[2]; 50 mg/mL coated substrates, t=48 h and 72 h", "result": "Some media bacterial growth was observed"},
      {"measurement": "bacterial growth in the surrounding media", "setting": "[2]; 50 mg/ml coated substrate, 24 h", "result": "absent"},
      {"measurement": "CFUs of S. mutans biofilm on substrate surface", "setting": "[2]; 100 mg/mL coating solution, 24 h", "result": "no observable CFUs"},
      {"measurement": "bacterial growth in the surrounding media", "setting": "[2]; 100 mg/ml coated substrate, 24 h", "result": "absent"},
      {"measurement": "CFUs of S. mutans on surface and in surrounding media", "setting": "[2]; 1.5 wt. % OH-AAZO bulk bisGMA:TEGDMA substrate, 24 h", "result": "no observable CFUs; also recorded: maintained sterility"},
      {"measurement": "CFUs of S. mutans on surface and in surrounding media", "setting": "[2]; 2 wt. % OH-AAZO bulk bisGMA:TEGDMA substrate, 24 h", "result": "no observable CFUs; also recorded: maintained sterility"},
      {"measurement": "prevention of growth of an S. mutans biofilm", "setting": "[2]; sucrose-dependent conditions", "result": "shown to prevent the growth"},
      {"measurement": "S. mutans growth", "setting": "S. mutans; exposed to light (AL), over 48 hr", "result": "no growth"},
      {"measurement": "S. mutans growth", "setting": "S. mutans; no light (ANL), first 33 hr", "result": "minimal growth"},
      {"measurement": "S. mutans growth", "setting": "S. mutans; no light (ANL), t=48 hr", "result": "some minimal biofilm growth"}
    ]}
  ]
}
